Entries after “also recorded” stand apart in the source; their conditions may differ.
Assays:
[1] = system: HCV gt1a replicon; test: HCV replicon assay, gt1a; assay type: cell-based, hepatitis C virus
[2] = system: HCV gt1b replicon; test: HCV replicon assay, gt1b; assay type: cell-based, hepatitis C virus; details: for potency against gt1b compared with daclatasvir (1), in words: vs 1

COC(=O)N[C@H]1CCC[C@@H]2CC[C@@H](c3ncc(-c4ccc(-c5ccc(-c6cnc([C@@H]7CCCN7C(=O)[C@@H](NC(=O)OC)C(C)C)[nH]6)cc5)cc4)[nH]3)N2C1=O [Compound 5]
times less potent against gt1a than 1 ([1]; vs daclatasvir (1)): ~6 | potency against gt1b compared with daclatasvir (1), in words [2]: nearly equipotent; also recorded: essentially equipotent

COC(=O)N[C@H](C(=O)N1CC2(C[C@H]1c1ncc(-c3ccc(-c4ccc(-c5cnc([C@@H]6CC[C@H]7CCC[C@H](N(C)C)C(=O)N76)[nH]5)cc4)cc3)[nH]1)OCCO2)C(C)C [Compound 13]
less potent than 5 against gt1a ([1]; vs 5): 16 fold

COC(=O)N[C@H]1CCC[C@H]2CC[C@@H](c3ncc(-c4ccc(-c5ccc(-c6cnc([C@@H]7CCCN7C(=O)[C@@H](NC(=O)OC)C(C)C)[nH]6)cc5)cc4)[nH]3)N2C1=O [Compound 2]
potency decrease against gt1a compared with daclatasvir (1) ([1]; vs 1): ~221 fold | potency against gt1b compared with daclatasvir (1), in words [2]: decreased slightly

COC(=O)N[C@H](C(=O)N1CCC[C@H]1c1ncc(-c2ccc(-c3ccc(-c4cnc([C@@H]5CC[C@H]6CCC[C@@H](NC(=O)OC)C(=O)N65)[nH]4)cc3)cc2)[nH]1)C(C)C [Compound 4]
gt1a potency regained compared with 2 ([1]; vs 2): ~27 fold | gt1b potency regained compared with 2 ([2]; vs 2): ~2 fold

From publication PMC8591741 (ACS Medicinal Chemistry Letters, 2021)
